Earlier results in US20090061012A1 (priority 2007, published 2009).

Experiments:
Conditions in all cases: in vivo
[1] = tested on: Lemon, Blue, and Great White Sharks
[2] = tested on: sharks
[3] = tested on: sharks; remark: listed apart in the source
[4] = tested on: shark's respiratory systems via the gill rakes

Compound | repelling sharks relative to pardaxin [1] | further results
CCCCCCCCCCCCOS(=O)(=O)[O-].[Li+] [LLS, lithium lauryl sulfate] | even better than pardaxin | –
CCCCCCCCCCCCOS(=O)(=O)[O-].[Na+] [SDS, sodium dodecyl sulphate] | – | concentration at which effective as a repellent [2]: 43.6 ppm
CCCCCCCCCCCCOS(=O)(=O)[O-].[Na+] [SLS, sodium lauryl sulfate] | even better than pardaxin | effectiveness in surrounding-cloud mode dispersions [3]: not effective
CCCCCCCCCCCCCCCCCCOS(=O)(=O)[O-].[Na+] [SOS, sodium octadecyl sulphate] | even better than pardaxin | –
pardaxin | – | repellent impact on sharks [4]: significant repellent impact
